Legend:
[1] = tested on: LTB4 biosynthesis in human polymorphonuclear leukocytes (PMNL); test: Inhibition of calcium ionophore (A23187)-induced LTB4 biosynthesis in human PMNL; format: cell-based; settings: 15 min preincubation at 37° C., A23187 8.3 μM, 10 min, LTB4 by HPLC
Method: Inhibition of leukotriene biosynthesis was evaluated in assays, involving calcium ionophore-induced LTB4 biosynthesis expressed by human polymorphonuclear leukocytes (PMNL) or human whole blood. Human PMNL were isolated from heparinized (20 USP units/mL) venous blood using Ficoll-Hypaque Mono-Poly Resolving Medium. Human PMNL suspensions (5×10^6 cells/250 μL) were preincubated with test compounds or vehicle for 15 min at 37° C. followed by calcium ionophore A23187 challenge (final concentration of 8.3 μM) and the reaction terminated after 10 min by adding two volumes of methanol containing prostaglandin B2 as an internal recovery standard. The methanol extracts were analyzed for LTB4 content by HPLC.

[2] = tested on: leukotriene biosynthesis; test: Inhibition of leukotriene biosynthesis in vivo, rat peritoneal anaphylaxis model, oral administration; settings: 1 h, by gavage one hour prior to antigen challenge
Method: Inhibition of the biosynthesis of leukotrienes in vivo after oral administration of compound was determined using a rat peritoneal anaphylaxis model in a similar manner as that described by Young and coworkers (Young, P. R.; Dyer, R. D.; Carter, G. W. Fed. Proc., Fed. Am. Sec. Exp. Biol. 1985, 44, 1185). In this model rats were injected intraperitoneally (ip) with rabbit antibody to bovine serum albumin (BSA) and three hours later injected ip with BSA to induce an antigen-antibody response. Rats were sacrificed 15 minutes after this challenge and the peritoneal fluids were collected and analyzed for leukotriene levels. Test compounds were administered by gavage one hour prior to the antigen challenge. Percent inhibition values were determined by comparing the treatment group to the mean of the control group.

Row | IC50 [1] [nM] | Compound | ED50 [2] [mg/kg]
1 | 10 | CC(C)(CON=CC(=O)O)Cc1c(SC(C)(C)C)c2cc(OCc3ccc4ccccc4n3)ccc2n1Cc1ccc(Cl)cc1 [Example 1] | 0.9
2 | 8 | CC(=NOCC(C)(C)Cc1c(SC(C)(C)C)c2cc(OCc3cscn3)ccc2n1Cc1ccc(Cl)cc1)C(=O)O [Example 5, 1-(4-chlorobenzyl)-3-(t-butylthio)-5-(4-thiazolylmethoxy)indol-2-yl-(2,2-dimethyl)prop-3-yliminooxy-2-propionic acid] | –
3 | 5 | CC(C)(CON=CC(=O)O)Cc1c(SC(C)(C)C)c2cc(OCc3ccc4ccccc4n3)ccc2n1Cc1ccc(F)cc1 [Example 6, 1-(4-fluorobenzyl)-3-(t-butylthio)-5-(2-quinolinylmethoxy)indol-2-yl-(2,2-dimethyl)prop-3-yliminooxyacetic acid] | –
4 | 10 | CC(=NOCC(C)(C)Cc1c(SC(C)(C)C)c2cc(OCc3ccc4ccccc4n3)ccc2n1Cc1ccc(Cl)cc1)C(=O)O [Example 2, 1-(4-chlorobenzyl)-3-(t-butylthio)-5-(2-quinolinemethoxy)indol-2-yl(2,2-dimethyl)prop-3-yl-iminooxy-2-propionic acid] | –

— patent publication US5399699A, “Indole iminooxy derivatives which inhibit leukotriene biosynthesis” (Abbott Laboratories, priority 1994, dated 1995)
